Source: patent US9765067B2, “Thiophen-2-yl-pyridin-2-yl-1H-pyrazole-4-carboxylic acid derivatives and the use thereof as soluble guanylate cyclase activators” (Novartis AG, priority 2014, dated 2017)

Molecular target: T1, soluble guanylate cyclase (human GUCYA3/GUCYB3) overexpressed in CHO cells (Homo sapiens, UniProt Q02108+Q02153)
T1 construct: expressed in transfected cells
T1 sequence (Q02108 1-690 partner): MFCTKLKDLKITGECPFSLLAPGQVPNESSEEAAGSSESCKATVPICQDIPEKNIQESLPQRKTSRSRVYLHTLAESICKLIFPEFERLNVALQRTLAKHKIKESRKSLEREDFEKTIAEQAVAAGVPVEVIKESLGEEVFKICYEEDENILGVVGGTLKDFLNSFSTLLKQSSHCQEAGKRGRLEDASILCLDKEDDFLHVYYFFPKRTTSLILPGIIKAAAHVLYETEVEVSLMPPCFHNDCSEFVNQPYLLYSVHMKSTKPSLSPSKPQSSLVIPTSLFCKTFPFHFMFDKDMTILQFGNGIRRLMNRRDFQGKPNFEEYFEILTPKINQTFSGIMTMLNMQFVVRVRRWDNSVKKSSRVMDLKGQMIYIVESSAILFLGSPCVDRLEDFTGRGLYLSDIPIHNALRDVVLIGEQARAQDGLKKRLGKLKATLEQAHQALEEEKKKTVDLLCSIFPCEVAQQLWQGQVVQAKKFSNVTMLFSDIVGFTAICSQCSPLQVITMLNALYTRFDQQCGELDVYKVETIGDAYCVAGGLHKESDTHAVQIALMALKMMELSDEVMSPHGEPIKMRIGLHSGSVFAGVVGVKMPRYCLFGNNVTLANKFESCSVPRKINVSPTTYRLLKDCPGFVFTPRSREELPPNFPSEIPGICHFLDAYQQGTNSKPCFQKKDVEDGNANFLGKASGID
T1 sequence (Q02153 1-619): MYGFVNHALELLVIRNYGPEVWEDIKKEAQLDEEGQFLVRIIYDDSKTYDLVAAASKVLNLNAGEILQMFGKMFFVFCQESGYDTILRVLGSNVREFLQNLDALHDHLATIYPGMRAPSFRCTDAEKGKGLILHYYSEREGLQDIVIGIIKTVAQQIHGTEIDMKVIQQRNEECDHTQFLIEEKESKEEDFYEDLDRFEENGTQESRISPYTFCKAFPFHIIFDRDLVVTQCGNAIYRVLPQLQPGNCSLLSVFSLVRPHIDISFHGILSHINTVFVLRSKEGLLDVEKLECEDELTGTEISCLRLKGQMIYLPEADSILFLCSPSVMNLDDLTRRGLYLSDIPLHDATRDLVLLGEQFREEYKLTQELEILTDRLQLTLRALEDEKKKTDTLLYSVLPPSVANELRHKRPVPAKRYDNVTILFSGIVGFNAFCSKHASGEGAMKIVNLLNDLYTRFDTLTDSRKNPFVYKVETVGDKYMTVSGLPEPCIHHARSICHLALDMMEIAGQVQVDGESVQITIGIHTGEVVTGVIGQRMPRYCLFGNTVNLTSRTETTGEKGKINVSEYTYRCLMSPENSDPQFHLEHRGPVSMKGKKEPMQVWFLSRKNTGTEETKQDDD
Assay: CHO cellular assay (cGMP production, HTRF)
Format: cell-based
Details: CHO K1 clone 8E10 overexpressing human sGC, Cisbio HTRF, 1 h room temperature, 1 mM IBMX, 20 uM ODQ, minimum quantification limit 0.5 nM
How it was run: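 Stable CHO K1 clone expressing human GUCYA3/GUCYB3. Compounds applied 1 h at room temperature in HBSS, 0.1% BSA, 1 mM IBMX, 20 uM ODQ, 0.5% DMSO. cGMP measured by HTRF and interpolated from a standard curve; EC50 from 4-parameter sigmoidal fit.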

EC50	Compound
195 nM	CCCc1cc(COc2ccc(C3CCN(C(=O)CC)CC3)cc2C)c(-c2cccc(-n3ncc(C(=O)O)c3C(F)(F)F)n2)s1 [Example 35-3, 1-(6-(3-((2-Methyl-4-(1-propionylpiperidin-4-yl)phenoxy)methyl)-5-propylthiophen-2-yl)pyridin-2-yl)-5-(trifluoromethyl)-1H-pyrazole-4-carboxylic acid]
1 nM	CCc1c(C2CCN(C(=O)C3CC3)CC2)ccc(OCc2cc(C)sc2-c2cccc(-n3ncc(C(=O)O)c3C(F)(F)F)n2)c1F [Example 35-13, 1-(6-(3-((4-(1-(Cyclopropanecarbonyl)piperidin-4-y1)-3-ethyl-2-fluorophenoxy)methyl)-5-methylthiophen-2-yl)pyridin-2-yl)-5-(trifluoromethyl)-1H-pyrazole-4-carboxylic acid]

The remaining lines, values behind:

Compound	EC50
Cc1cc(COc2ccc(C3CCN(CC(F)(F)F)CC3)cc2C)c(-c2cccc(-n3ncc(C(=O)O)c3C(F)(F)F)n2)s1 [Example 6-16, 1-(6-(5-Methyl-3-((2-methyl-4-(1-(2,2,2-trifluoroethyl)piperidin-4-yl)phenoxy)methyl)thiophen-2-yl)pyridin-2-yl)-5-(trifluoromethyl)-1H-pyrazole-4-carboxylic acid]	6.3 nM
COc1cc(OCc2ccsc2-c2cccc(-n3ncc(C(=O)O)c3C(F)(F)F)n2)ccc1C1CCN(C(=O)C2CC2)CC1 [Example 6-5, 1-(6-(3-((4-(1-(Cyclopropanecarbonyl)piperidin-4-yl)-3-methoxyphenoxy)methyl)thiophen-2-yl)pyridin-2-yl)-5-(trifluoromethyl)-1H-pyrazole-4-carboxylic acid]	1 nM
CCc1c(C(=O)O)cnn1-c1cccc(-c2sccc2COc2ccc(C3CCN(C(=O)C4CC4)CC3)cc2C)n1 [Example 6-9, 1-(6-(3-((4-(1-(Cyclopropanecarbonyl)piperidin-4-yl)-2-methylphenoxy)methyl)thiophen-2-yl)pyridin-2-yl)-5-ethyl-1H-pyrazole-4-carboxylic acid]	≤ 0.5 nM
CCc1cc(OCc2cc(C)sc2-c2cccc(-n3ncc(C(=O)O)c3C(F)(F)F)n2)ccc1C1CCN(C(=O)CC2CC2)CC1 [Example 12-4, 1-(6-(3-((4-(1-(2-Cyclopropylacetyl)piperidin-4-yl)-3-ethylphenoxy)methyl)-5-methylthiophen-2-yl)pyridin-2-yl)-5-(trifluoromethyl)-1H-pyrazole-4-carboxylic acid]	≤ 0.5 nM
Cc1cc(C2CCN(C(=O)C3CC3)CC2)ccc1OCc1ccsc1-c1cccc(-n2ncc(C(=O)O)c2C)n1 [Example 9, 1-(6-(3-((4-(1-(Cyclopropanecarbonyl)piperidin-4-yl)-2-methylphenoxy)methyl)thiophen-2-yl)pyridin-2-yl)-5-methyl-1H-pyrazole-4-carboxylic acid]	≤ 0.5 nM
Cc1cc(COc2ccc(C3CCN(C(=O)C4CC4)CC3)c(F)c2)c(-c2cccc(-n3ncc(C(=O)O)c3C(F)(F)F)n2)s1 [Example 6-14, 1-(6-(3-((4-(1-(Cyclopropanecarbonyl)piperidin-4-yl)-3-fluorophenoxy)methyl)-5-methylthiophen-2-yl)pyridin-2-yl)-5-(trifluoromethyl)-1H-pyrazole-4-carboxylic acid]	3 nM
